# Data as given in ChEMBL document CHEMBL1201862, “PubChem BioAssay data set” (2004).
# Calls of active or inactive are those of the source.
# Legend:
# [1] = molecular target: Melanin-concentrating hormone receptor 1 (Homo sapiens, UniProt Q99705); experiment: Fluorescence-based counterscreen for antagonists of the G-protein coupled receptor 7 (GPR7): cell-based high throughput dose response assay to identify antagonists of the melanin-concentrating hormone receptor 1 (MCHR1).; assay type: functional
# [2] = molecular target: T1, Neuropeptides B/W receptor type 1 (Homo sapiens, UniProt P48145); experiment: Fluorescence-based dose response cell-based high throughput screening assay to identify antagonists of the G-protein coupled receptor 7 (GPR7). [Related pubchem assays: 1952 (Screening assay (GPR7 antagonists).), 1880 (Summary AID.)]; assay type: functional
# T1 sequence (P48145 whole entry): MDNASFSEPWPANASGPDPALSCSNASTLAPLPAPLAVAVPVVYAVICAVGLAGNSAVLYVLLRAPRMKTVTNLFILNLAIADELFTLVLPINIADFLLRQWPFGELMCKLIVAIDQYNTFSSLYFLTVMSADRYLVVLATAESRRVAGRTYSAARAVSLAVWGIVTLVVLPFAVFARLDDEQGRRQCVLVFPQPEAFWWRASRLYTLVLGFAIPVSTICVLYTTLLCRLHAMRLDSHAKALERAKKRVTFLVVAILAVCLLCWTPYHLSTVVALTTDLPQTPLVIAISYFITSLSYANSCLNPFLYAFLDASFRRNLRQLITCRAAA
# [3] = molecular target: Heat shock protein HSP 90-alpha (Homo sapiens, UniProt P07900); assay type: functional, organism-based
# [4] = molecular target: NACHT, LRR and PYD domains-containing protein 3 (Homo sapiens, UniProt Q96P20); experiment: NALP3 inhibitors in yeast, dose response, luminescent (AID 488799); assay type: functional
# [5] = molecular target: T2, Alkaline phosphatase, tissue-nonspecific isozyme (Homo sapiens, UniProt P05186)
# T2 sequence (P05186 whole entry): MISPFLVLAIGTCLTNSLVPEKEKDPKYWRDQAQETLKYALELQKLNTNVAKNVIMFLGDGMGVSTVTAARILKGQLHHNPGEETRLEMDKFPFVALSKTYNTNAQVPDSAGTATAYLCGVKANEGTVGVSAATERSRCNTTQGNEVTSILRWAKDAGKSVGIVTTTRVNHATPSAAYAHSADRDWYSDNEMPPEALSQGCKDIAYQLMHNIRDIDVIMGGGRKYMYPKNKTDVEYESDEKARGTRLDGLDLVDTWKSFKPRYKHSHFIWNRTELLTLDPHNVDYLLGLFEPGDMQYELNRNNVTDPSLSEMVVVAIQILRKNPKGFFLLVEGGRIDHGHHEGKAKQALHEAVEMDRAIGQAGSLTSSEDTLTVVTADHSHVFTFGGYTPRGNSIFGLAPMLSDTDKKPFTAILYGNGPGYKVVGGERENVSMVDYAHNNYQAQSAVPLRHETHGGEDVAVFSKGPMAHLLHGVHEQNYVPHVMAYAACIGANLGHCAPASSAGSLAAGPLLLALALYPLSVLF
# cells = assay type: functional, cell-based
# [6] = luciferase reporter signal suppression in cells – H4 neuroglioma cells, luminescence, dose response (AID 1990); assay type: functional, cell-based
# [7] = alpha-synuclein stem-loop luciferase translation blockers – H4 neuroglioma cells, luminescence, confirmation (AID 1988); assay type: functional, cell-based
# [8] = alpha-synuclein stem-loop translation blockers – luminescence, H4 neuroglioblastoma cells, dose confirmation, confirmation (AID 2454); assay type: functional, cell-based;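 note: H4 neuroglioblastoma cells carrying an alpha-synuclein 5'UTR luciferase reporter; potency for inhibition of the luciferase signal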
# [9] = HEK-293T viability loss after treatment – luminescence, T-cell screen hits, cytotoxicity control for TCR NF-kB inhibitor project, dose response (AID 489026); assay type: functional, cell-based;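 note: cells exposed to compound about 14 hours before the viability readout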
# [10] = luciferase reporter signal reduction – luminescence, H4-C neuroglioblastoma cells, dose response (AID 2458); assay type: functional, cell-based;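 note: H4 neuroglioblastoma cells stably carrying a luciferase reporter gene fusion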
# [11] = molecular target: C-C chemokine receptor type 6 (Homo sapiens, UniProt P51684); experiment: antagonism of CCR6 beta-arrestin recruitment – cell-based, luminescent beta-arrestin readout, dose response (AID 504728); assay type: functional
# Beta-galactosidase = Beta-galactosidase (Escherichia coli, UniProt Q8VNN2); experiment: detection-enzyme interference by beta-gal modulators – biochemical, E. coli enzyme, set 3, artefact control for CCR6 antagonist project, dose response (AID 504712); assay type: functional
# INS1 = experiment: INS-1E survival protection against cytokine death – cell-based, luminescence, retest, dose response (AID 449756); assay type: functional; settings: Rattus norvegicus;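 note: cell death triggered by IL-1 beta plus TNF-alpha plus IFN-gamma mixture; protective hits raise ATP signal compared with cytokine alone wells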
# [12] = viability of HCT116 lacking mutant beta-catenin – cell-based, human colon tumor, dose response (AID 1045); assay type: functional;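 note: HCT116 colon tumor cells with beta catenin knocked out; cells exposed to compound for 60 hours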
# [13] = viability of PTEN-deleted HCT116 cells – cell-based, HCT116 PTEN knockout, dose response (AID 1047); assay type: functional;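 note: HCT116 colon tumor cells with PTEN knocked out; cells exposed to compound for 60 hours before readout; potency for loss of cell viability measured by luminescence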
# [14] = molecular target: G-protein coupled receptor 35 (Homo sapiens, UniProt Q9HC97); experiment: inhibition of zaprinast-stimulated GPR35 beta-arrestin translocation – imaging, U2OS, beta-arrestin-GFP, zaprinast agonist, primary screen (AID 2058); assay type: functional;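 note: antagonist potency meaning inhibition of agonist-induced arrestin redistribution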
# [15] = Trypanosoma cruzi growth suppression in host cells – NIH3T3 host cells, beta-gal luminescence, confirmation (AID 2044); assay type: functional, cell-based;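 note: intracellular parasites grown in NIH/3T3 mouse fibroblasts as host cells; luminescent beta-galactosidase reporter signal from transgenic T. cruzi replicating inside host cells; inhibitors lower the luminescence signal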
# Sequence of Beta-galactosidase (Q8VNN2 whole entry): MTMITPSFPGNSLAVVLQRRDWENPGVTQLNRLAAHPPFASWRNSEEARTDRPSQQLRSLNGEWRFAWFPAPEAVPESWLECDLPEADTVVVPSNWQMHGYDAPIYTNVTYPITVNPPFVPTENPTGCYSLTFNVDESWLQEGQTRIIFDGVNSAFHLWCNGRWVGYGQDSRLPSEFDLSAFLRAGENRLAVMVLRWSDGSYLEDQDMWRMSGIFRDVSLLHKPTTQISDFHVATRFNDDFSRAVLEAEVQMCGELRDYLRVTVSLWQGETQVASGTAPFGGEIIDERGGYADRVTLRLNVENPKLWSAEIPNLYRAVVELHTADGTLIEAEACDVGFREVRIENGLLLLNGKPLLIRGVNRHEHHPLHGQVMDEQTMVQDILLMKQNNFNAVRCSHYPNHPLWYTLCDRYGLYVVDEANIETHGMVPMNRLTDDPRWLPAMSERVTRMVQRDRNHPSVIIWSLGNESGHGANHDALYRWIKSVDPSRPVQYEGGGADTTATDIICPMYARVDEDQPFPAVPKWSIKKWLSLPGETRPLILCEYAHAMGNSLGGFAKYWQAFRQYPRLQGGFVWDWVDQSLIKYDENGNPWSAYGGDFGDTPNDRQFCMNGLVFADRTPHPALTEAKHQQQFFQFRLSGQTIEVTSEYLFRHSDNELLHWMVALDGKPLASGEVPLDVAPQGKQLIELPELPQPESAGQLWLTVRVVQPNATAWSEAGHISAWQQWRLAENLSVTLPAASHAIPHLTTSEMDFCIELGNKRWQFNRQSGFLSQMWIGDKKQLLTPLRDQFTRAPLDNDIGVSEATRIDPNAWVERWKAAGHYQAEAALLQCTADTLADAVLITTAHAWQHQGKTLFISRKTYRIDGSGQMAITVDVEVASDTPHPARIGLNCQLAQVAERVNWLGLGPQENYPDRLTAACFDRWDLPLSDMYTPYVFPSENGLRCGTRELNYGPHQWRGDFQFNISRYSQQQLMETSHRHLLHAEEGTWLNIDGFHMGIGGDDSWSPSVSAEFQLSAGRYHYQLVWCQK
# Sequence of G-protein coupled receptor 35 (Q9HC97 whole entry): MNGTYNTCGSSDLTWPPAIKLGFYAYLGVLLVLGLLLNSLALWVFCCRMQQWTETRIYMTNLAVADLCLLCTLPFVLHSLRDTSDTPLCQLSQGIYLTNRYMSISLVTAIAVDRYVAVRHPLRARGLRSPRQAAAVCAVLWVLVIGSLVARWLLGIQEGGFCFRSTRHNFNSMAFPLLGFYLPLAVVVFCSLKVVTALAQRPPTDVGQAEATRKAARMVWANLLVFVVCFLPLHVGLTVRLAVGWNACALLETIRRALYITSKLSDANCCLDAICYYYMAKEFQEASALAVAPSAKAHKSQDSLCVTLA
# Sequence of NACHT, LRR and PYD domains-containing protein 3 (Q96P20 whole entry, the tested form may be a part): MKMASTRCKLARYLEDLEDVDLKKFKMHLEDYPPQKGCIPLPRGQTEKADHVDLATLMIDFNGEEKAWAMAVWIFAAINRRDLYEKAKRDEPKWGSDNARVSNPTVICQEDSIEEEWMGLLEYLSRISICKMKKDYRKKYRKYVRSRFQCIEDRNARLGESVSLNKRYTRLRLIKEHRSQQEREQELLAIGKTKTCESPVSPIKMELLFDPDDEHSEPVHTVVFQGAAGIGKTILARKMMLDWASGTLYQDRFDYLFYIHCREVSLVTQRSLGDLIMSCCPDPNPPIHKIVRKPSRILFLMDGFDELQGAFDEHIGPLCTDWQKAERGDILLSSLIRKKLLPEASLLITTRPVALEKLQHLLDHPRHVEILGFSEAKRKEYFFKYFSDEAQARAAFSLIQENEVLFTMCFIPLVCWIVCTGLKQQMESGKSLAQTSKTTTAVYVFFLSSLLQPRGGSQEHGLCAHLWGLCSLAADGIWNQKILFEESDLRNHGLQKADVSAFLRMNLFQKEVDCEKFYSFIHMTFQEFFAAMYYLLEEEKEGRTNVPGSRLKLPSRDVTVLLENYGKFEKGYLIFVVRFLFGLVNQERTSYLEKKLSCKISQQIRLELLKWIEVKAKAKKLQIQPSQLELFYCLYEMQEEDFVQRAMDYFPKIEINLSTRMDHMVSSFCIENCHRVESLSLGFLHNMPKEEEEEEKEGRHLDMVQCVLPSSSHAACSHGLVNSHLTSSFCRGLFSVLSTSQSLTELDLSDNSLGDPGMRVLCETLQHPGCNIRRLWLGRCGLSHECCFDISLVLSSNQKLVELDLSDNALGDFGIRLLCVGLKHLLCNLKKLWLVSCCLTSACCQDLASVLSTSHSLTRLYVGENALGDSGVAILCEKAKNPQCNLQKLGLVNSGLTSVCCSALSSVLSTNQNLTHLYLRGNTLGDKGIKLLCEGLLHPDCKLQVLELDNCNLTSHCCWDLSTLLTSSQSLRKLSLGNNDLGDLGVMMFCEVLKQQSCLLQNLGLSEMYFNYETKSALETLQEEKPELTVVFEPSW
# Sequence of C-C chemokine receptor type 6 (P51684 whole entry): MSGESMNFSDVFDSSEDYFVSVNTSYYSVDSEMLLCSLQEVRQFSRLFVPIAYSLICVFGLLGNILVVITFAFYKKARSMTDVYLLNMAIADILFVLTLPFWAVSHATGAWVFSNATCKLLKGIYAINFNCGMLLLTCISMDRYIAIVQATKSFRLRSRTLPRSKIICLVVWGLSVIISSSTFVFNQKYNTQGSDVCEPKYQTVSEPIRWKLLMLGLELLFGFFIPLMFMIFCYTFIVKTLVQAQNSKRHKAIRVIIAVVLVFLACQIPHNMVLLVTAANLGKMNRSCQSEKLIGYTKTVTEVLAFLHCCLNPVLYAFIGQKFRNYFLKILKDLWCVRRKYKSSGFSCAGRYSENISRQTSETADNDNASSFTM
# Sequence of Melanin-concentrating hormone receptor 1 (Q99705 whole entry): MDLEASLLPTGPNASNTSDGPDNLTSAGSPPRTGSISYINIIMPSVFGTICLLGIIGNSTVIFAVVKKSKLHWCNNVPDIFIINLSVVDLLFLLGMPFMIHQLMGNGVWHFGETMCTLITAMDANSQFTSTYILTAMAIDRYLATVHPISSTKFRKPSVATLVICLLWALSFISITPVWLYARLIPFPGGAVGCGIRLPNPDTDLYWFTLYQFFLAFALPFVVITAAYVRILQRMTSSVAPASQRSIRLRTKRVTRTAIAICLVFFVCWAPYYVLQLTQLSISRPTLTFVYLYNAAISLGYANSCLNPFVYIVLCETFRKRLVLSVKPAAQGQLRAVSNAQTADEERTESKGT
structure (smiles),measurement,setting,value
Cc1ccc(N2C(=O)C3C4C=CC(CN=C(S)Nc5ccc(Cl)cc5)(O4)C3C2=O)cc1 (stereo not drawn),IC50,[1],18.9 µM (not active)
same,IC50,[2],42.8 µM (not active)
same,AC50,[3],25.4 µM (active)
Cc1cccc(C(=O)ONC(=N)Cc2cccc3ccccc23)c1,IC50,[4],1.62 µM (active)
CCn1c(/C=N/Nc2ccc(C(=O)O)cc2)nc2ccccc21,EC50,[5],88.3 µM (not active)
CCOC(=O)C(C)Oc1cccc2c(=O)n(CC(=O)NCc3ccc(F)cc3)ccc12 (stereo not drawn),EC50,cells,1.67 µM (active)
same,EC50,[6],0.3 µM (active)
same,EC50,[7],< 0.1 µM (active)
same,EC50,[8],> 12 µM (inconclusive)
same,IC50,[9],> 80 µM (inactive)
same,EC50,[10],> 12 µM (not active)
CC[N+]1(C)CCC(O)(/C=C/c2ccccc2)C(C(=O)/C=C/c2ccccc2)C1 (stereo not drawn),IC50,[11],39.9 µM (inactive)
same,IC50,Beta-galactosidase,> 66.6 µM (inactive)
COc1ccc(/N=C2\S/C(=C\c3ccc(N4CCOCC4)o3)C(=O)N2CCc2c[nH]c3ccccc23)cc1,AC50,INS1,7.09 µM (active)
same,EC50,[12],7.54 µM (active)
same,EC50,[13],10 µM (active)
same,IC50,[14],1.49 µM (active)
same,EC50,[15],0.335 µM (active)
